# Source: patent publication US10960087B2, “Compositions and methods for treatment of diabetic retinopathy” (NOVARTIS AG, priority 2007, dated 2021)
# Like-named read-outs stand apart in the source and are kept apart here.
# Columns and labels:
# [1] = tested on: HuT 78 cell adhesion to 5dICAM-Ig; experiment: Human T-cell adhesion assay (HuT 78); assay type: cell-based; conditions: HuT78, HuT 78 adhesion to 5dICAM-Ig
# Method: The T-cell adhesion assay was performed using the human T-lymphoid cell line HuT 78 (ATCC TIB-161). Goat anti-HuIgG(Fc) was diluted to 2 μg/ml in PBS and 96-well plates were coated with 50 μl/well at 37° C. for 1 h. Plates were washed with PBS and blocked for 1 h at room temperature with 1% BSA in PBS. 5 domain ICAM-Ig was diluted to 100 ng/ml in PBS and 50 μl/well was added to the plates 0/N at 4° C. HuT 78 cells were centrifuged at 100 g and the cell pellet was treated with 5 mM EDTA for ˜5′ at 37° C. in a 5% CO2 incubator. Cells were washed in 0.14 M NaCl, 0.02 M Hepes, 0.2% glucose and 0.1 mM MnCl2 (assay buffer) and centrifuged. The cells were resuspended in assay buffer to 3.0×10^6 c/ml. Inhibitors were diluted in assay buffer to a 2× final concentration and pre-incubated with HuT78 cells for 30′ at room temperature. 100 μl/well of cells and inhibitors were added to the plates and incubated at room temperature for 1 h. 100 μl/well PBS was added and the plates were sealed and centrifuged inverted at 100 g for 5′. Unattached cells were flicked out of the plate and excess PBS was blotted on a paper towel. 60 μl/well p-nitrophenyl n-acetyl-β-D-glucosaminide (0.257 g to 100 ml citrate buffer) was added to the plate and incubated for 1.5 h at 37° C. The enzyme reaction was stopped with 90 μI/well 50 mM glycine/5 mM EDTA and read on a platereader at […]. HUT 78 cell adhesion to 5dICAM-Ig was measured using the p-nitrophenyl n-acetyl-.β-D-glucosaminide method of Landegren, U. (1984). J. Immunol. Methods 57, 379-388.
# Solubility = assay type: physicochemical
# [2] = tested on: human mononucleocytes (PBMC) stimulated with staphylococcal enterotoxin B (SEB); experiment: cells; assay type: cell-based
# LFA-1 = LFA-1 (Homo sapiens, UniProt P20701); conditions: Lu et al. 2004; cited from earlier work
# Sequence of LFA-1 (P20701 26-1170): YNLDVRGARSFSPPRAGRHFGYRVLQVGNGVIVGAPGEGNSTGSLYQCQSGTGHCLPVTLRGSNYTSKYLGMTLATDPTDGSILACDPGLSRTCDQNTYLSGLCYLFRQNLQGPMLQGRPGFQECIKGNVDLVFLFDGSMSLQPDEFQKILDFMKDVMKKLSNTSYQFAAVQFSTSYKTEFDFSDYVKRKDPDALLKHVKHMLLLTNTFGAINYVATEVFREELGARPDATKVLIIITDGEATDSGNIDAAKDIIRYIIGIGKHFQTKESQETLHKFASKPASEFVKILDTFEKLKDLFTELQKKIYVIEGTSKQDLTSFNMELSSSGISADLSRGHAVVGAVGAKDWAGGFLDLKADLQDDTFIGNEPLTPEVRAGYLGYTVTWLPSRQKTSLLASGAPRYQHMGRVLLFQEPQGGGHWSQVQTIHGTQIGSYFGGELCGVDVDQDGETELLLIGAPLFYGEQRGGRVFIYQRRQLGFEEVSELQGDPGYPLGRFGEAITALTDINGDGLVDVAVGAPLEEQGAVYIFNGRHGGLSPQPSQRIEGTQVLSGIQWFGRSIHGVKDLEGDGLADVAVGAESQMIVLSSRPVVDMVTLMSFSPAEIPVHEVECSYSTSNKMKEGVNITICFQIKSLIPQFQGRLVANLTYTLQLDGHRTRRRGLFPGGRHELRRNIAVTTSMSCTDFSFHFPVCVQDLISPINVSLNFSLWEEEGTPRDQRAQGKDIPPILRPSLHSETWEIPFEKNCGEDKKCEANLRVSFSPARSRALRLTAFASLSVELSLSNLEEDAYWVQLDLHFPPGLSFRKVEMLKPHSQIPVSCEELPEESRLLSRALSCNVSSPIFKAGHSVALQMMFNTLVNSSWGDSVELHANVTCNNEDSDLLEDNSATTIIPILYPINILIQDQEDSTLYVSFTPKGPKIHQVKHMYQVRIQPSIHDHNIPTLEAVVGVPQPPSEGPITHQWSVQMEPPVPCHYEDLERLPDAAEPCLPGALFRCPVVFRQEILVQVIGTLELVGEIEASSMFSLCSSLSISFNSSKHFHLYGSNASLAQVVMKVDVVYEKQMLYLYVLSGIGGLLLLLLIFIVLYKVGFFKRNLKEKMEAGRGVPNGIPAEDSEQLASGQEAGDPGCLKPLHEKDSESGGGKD
# Sequence of LFA-1 (P05107 23-769 partner): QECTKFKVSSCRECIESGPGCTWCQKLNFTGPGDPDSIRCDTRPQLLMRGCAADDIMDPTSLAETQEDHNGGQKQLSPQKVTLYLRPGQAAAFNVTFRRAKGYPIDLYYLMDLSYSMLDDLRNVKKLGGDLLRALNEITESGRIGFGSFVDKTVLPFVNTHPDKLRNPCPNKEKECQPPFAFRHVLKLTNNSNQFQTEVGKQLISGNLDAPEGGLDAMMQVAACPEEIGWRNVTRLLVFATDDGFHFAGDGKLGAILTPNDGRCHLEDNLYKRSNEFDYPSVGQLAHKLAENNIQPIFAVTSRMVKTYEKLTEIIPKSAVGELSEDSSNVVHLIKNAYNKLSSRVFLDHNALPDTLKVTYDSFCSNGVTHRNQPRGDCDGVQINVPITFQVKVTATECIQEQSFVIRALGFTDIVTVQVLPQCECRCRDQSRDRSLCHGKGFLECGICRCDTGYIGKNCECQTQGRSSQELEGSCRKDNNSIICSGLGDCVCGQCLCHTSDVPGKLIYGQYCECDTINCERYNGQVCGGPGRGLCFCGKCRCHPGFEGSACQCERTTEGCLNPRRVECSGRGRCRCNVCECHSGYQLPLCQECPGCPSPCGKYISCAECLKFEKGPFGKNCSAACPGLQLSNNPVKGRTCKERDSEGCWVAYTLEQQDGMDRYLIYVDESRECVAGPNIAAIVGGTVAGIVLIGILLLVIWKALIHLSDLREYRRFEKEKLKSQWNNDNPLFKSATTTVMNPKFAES
Compound,EC50 [1] [µM],solubility (Solubility) [mg/mL],further results
O=C(NC[C@H](NC(=O)c1c(Cl)cc2c(c1Cl)CCN(C(=O)c1cccc(Cl)c1)C2)C(=O)O)c1cccs1 [Compound 2],≤ 0.05,> 100,
CCc1c(C(=O)N[C@@H](CNC(=O)c2cccs2)C(=O)O)c2ccccc2n(CCCc2ccccc2)c1=O [Compound 6],≤ 0.05,> 100,
C[S+]([O-])c1cc(F)cc(C[C@H](NC(=O)c2c(Cl)cc3c(c2Cl)CCN(C(=O)c2ccc(Cl)cc2)C3)C(=O)O)c1 (some centres unmarked) [Compound 9],≤ 0.05,> 50,
CN1CCN(C(=O)[C@H](CNC(=O)c2cccs2)NC(=O)c2c(Cl)cc3c(c2Cl)CCN(C(=O)c2ccc(Cl)cc2)C3)CC1 [Compound 10],,> 100,
CS(=O)(=O)c1cccc(C[C@H](NC(=O)c2c(Cl)cc3c(c2Cl)CCN(C(=O)c2ccc4ccoc4c2)C3)C(=O)O)c1 [Compound 12],≤ 0.05,> 100,
CS(=O)(=O)c1cccc(C[C@H](NC(=O)c2c(Cl)cc3c(c2Cl)CCN(C(=O)c2ccc4cn[nH]c4c2)C3)C(=O)O)c1 [Compound 15],≤ 0.05,> 100,
CS(=O)(=O)c1cccc(C[C@H](NC(=O)c2c(Cl)cc3c(c2Cl)CCN(C(=O)c2cc4ccccc4cn2)C3)C(=O)O)c1 [Compound 16],≤ 0.05,> 100,
CS(=O)(=O)c1cccc(C[C@H](NC(=O)c2c(Cl)cc3c(c2Cl)CCN(C(=O)c2cc4cccnc4[nH]2)C3)C(=O)O)c1 [Compound 19],≤ 0.05,> 50,
CS(=O)(=O)c1ccc(C[C@H](NC(=O)c2c(Cl)cc3c(c2Cl)CCN(C(=O)c2cc4cccnc4[nH]2)C3)C(=O)O)o1 [Compound 20],≤ 0.05,> 100,
O=C(NC[C@H](NC(=O)c1c(Cl)cc2c(c1Cl)CCN(C(=O)Nc1cccc(Cl)c1)C2)C(=O)O)c1cccs1 [Compound 21],≤ 0.05,> 100,
CS(=O)(=O)c1cc(F)cc(C[C@H](NC(=O)c2c(Cl)cc3c(c2Cl)CCN(C(=O)c2ccc4ccoc4c2)C3)C(=O)O)c1 [Compound 25],≤ 0.05,> 100,
CS(=O)(=O)c1cccc(C[C@H](NC(=O)c2c(Cl)cc3c(c2Cl)CCN(C(=O)/C=C/c2ccccc2F)C3)C(=O)O)c1 [Compound 27],≤ 0.05,> 100,
Cc1cc2c(=O)n(Cc3ccccc3)ncc2cc1C(=O)N[C@@H](CNC(=O)c1cccs1)C(=O)O [Compound 29],≤ 3,> 50,
O=C(NC[C@H](NC(=O)c1c(Cl)cc2c(c1Cl)CCN(C(=O)c1ccc3ccoc3c1)C2)C(=O)O)c1cccc(F)c1 [Compound 31],≤ 0.05,> 50,
O=C(NC[C@H](NC(=O)c1c(Cl)cc(CCC(O)c2cccc(O)c2)cc1Cl)C(=O)O)c1cccs1 (some centres unmarked) [Compound 32],≤ 0.05,> 50,
O=C(NC[C@H](NC(=O)c1c(Cl)cc2c(c1Cl)CCN(C(=O)c1cc(O)nc3ccccc13)C2)C(=O)O)c1cccs1 [Compound 35],≤ 0.05,> 100,
CS(=O)(=O)c1cccc(C[C@H](NC(=O)c2c(Cl)cc3c(c2Cl)CCN(C(=O)c2cc4ccccc4[nH]2)C3)C(=O)O)c1 [Compound 36],≤ 0.05,> 50,
CS(=O)(=O)c1ccc(C[C@H](NC(=O)c2c(Cl)cc3c(c2Cl)CCN(C(=O)c2ccc4ccoc4c2)C3)C(=O)O)o1 [Compound 41],≤ 0.05,> 100,
CS(=O)(=O)CCNC[C@H](NC(=O)c1c(Cl)cc2c(c1Cl)CCN(C(=O)c1ccc(Cl)cc1)C2)C(=O)O [Compound 42],≤ 3,> 100,
CS(=O)(=O)NCCC[C@H](NC(=O)c1c(Cl)cc2c(c1Cl)CCN(C(=O)c1ccc3ccoc3c1)C2)C(=O)O [Compound 44],≤ 0.05,> 100,
O=C(NC[C@H](NC(=O)c1c(Cl)cc2c(c1Cl)CCN(C(=O)/C=C/c1ccco1)C2)C(=O)O)c1cccs1 [Compound 45],≤ 0.05,> 100,
CS(=O)(=O)c1cccc(C[C@H](NC(=O)c2c(Cl)cccc2Cl)C(=O)O)c1 [Compound 46],≤ 0.1,> 100,
C[C@H](O)c1cccc(C[C@H](NC(=O)c2c(Cl)cc3c(c2Cl)CCN(C(=O)c2ccc4cn[nH]c4c2)C3)C(=O)O)c1 [Compound 48],≤ 0.05,,
CP(C)(=O)c1cccc(C[C@H](NC(=O)c2c(Cl)cc3c(c2Cl)CCN(C(=O)c2ccc4ccoc4c2)C3)C(=O)O)c1 [Compound 49],≤ 0.1,,
O=C(NC(Cc1cc(=O)[nH]c2ccccc12)C(=O)O)c1ccc(Cl)cc1 (centres unmarked) [Rebamipide],,,EC50 ([2]; read-out: EC50 Cytokine Release GM-CSF): > 1000 µM; EC50 ([2]; read-out: EC50 Cytokine Release IFNγ): > 1000 µM; EC50 ([2]; read-out: EC50 Cytokine Release IL-1α): > 1000 µM; EC50 ([2]; read-out: EC50 Cytokine Release IL-1β): > 1000 µM; EC50 ([2]; read-out: EC50 Cytokine Release IL-2): > 1000 µM; EC50 ([2]; read-out: EC50 Cytokine Release IL-3): > 1000 µM; EC50 ([2]; read-out: EC50 Cytokine Release IL-4): > 1000 µM; EC50 ([2]; read-out: EC50 Cytokine Release IL-5): > 1000 µM; EC50 ([2]; read-out: EC50 Cytokine Release IL-6): > 1000 µM; EC50 ([2]; read-out: EC50 Cytokine Release IL-10): > 1000 µM; EC50 ([2]; read-out: EC50 Cytokine Release IL-12p40): > 1000 µM; EC50 ([2]; read-out: EC50 Cytokine Release IL-13): > 1000 µM; EC50 ([2]; read-out: EC50 Cytokine Release IP-10): > 1000 µM; EC50 ([2]; read-out: EC50 Cytokine Release MCP-1): > 1000 µM; EC50 ([2]; read-out: EC50 Cytokine Release MIP-1α): > 1000 µM; EC50 ([2]; read-out: EC50 Cytokine Release TNF-α): > 1000 µM
efalizumab: antibody directed against LFA-1,,,Mode of antagonism of LFA-1 (LFA-1): directly competitive antagonist of LFA-1
